Biological target: T1, HCV NS3 helicase NS3h_1b(con1) (Hepatitis C virus genotype 1b, UniProt Q9WMX2)
T1 construct: truncated C-terminally His-tagged NS3 proteins lacking the N-terminal protease, called NS3h; His-tag (C); made in house
Assay: MBHA screen of NCI mechanistic set library at 20 μM (percent inhibition, compound interference)
Type: biochemical
Conditions: compounds at 20 μM; for Inh. (%) (Inhibition): calculated from Equation 1
In short: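 Molecular beacon-based DNA unwinding assay; compounds screened at 20 μM in triplicate, with DMSO-only negative and 500 nM dT20 positive controls. Fluorescence (ex 643/em 670 nm) was read before and 30 min after adding ATP to 1 mM. Percent inhibition came from the change relative to DMSO controls; interference from pre-ATP fluorescence versus DMSO controls.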

[1] = assay interference calculated with Equation 2 (fluorescence vs DMSO-only controls before ATP)
[2] = MBHA with DNA substrate, assay interference calculated with Equation 2

T1 sequence (Q9WMX2 1192-1657): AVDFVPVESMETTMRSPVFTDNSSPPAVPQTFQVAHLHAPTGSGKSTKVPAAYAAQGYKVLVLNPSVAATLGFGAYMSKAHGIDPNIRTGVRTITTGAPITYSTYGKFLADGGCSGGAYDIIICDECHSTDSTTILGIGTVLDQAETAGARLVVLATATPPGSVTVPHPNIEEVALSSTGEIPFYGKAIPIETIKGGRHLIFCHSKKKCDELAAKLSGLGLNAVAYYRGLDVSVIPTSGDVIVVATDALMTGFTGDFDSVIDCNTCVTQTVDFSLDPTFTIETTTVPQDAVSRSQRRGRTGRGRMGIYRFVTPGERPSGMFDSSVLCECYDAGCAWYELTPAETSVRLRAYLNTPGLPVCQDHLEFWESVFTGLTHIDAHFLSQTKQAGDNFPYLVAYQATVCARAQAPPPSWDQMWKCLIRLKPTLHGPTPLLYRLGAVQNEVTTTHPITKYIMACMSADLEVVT

Row | SMILES | Inh. (%) (Inhibition) (MBHA with a DNA substrate) | Int.* (Ratio) (Interference) [1] | Int.* (Ratio) (Interference) [2] | Inh. (%) (Inhibition) (MBHA with DNA substrate) | Inh. (%) (Inhibition) (MBHA with DNA substrate, 20 µM)
1 | Cc1c(N=Cc2ccc(N(CCC#N)CCC#N)cc2)c(=O)n(-c2ccccc2)n1C [Compound 620280] | −30.3 | 1.01 |  |  | 
2 | C=C1C(=O)C23CC[C@@H]4C(C)(C(=O)OC)CCCC4(C)[C@@H]2CCC1(O)C3 (some centres unmarked) [Compound 620358] |  |  | 0.91 | −10.5 | 
3 | CC1=NN(C(=O)c2ccncc2)C(=O)C1N=Nc1ccc(F)cc1 (centres unmarked) [Compound 621094] |  |  | 0.98 | −2.8 | 
4 | Cc1cc2c(cc1C)[n+](=O)c(C(=O)/C=C/c1ccccc1[N+](=O)[O-])c(C)n2[O-] [Compound 621486] |  |  | 1.16 | −10.4 | 
5 | C[N+](C)(C)CC1CCCC1=O.[I-] (centres unmarked) [Compound 621889] |  |  | 1.08 | 12.2 | 
6 | [Mo] [Compound 622116] |  |  | 0.97 |  | 3.5
7 | [Mo] [Compound 622124] |  |  | 1.11 |  | 54.2
8 | COC1=CC(=O)c2c(ccc3ncnc(N)c23)C1=O [Compound 622190] |  |  | 1.09 | 4.9 | 
9 | COc1ccc(-n2/c(=N/C(=S)N(C)C)ss/c2=N\C(=S)N(C)C)cc1 [Compound 622586] |  |  | 0.93 | −14.9 | 
10 | CN(C)C(=S)/N=c1\ss/c(=N\C(=S)N(C)C)n1-c1ccc2c(c1)OCO2 [Compound 622589] | −21.0 | 0.94 |  |  | 
11 | Br.CN(C)c1nc(=NCc2ccco2)ss1 [Compound 622608] |  |  | 1.01 | −2.1 | 
12 | CCOC(=O)CCc1c(C)c2c(O)cc(O)cc2oc1=O [Compound 622616] | −6.5 | 0.95 |  |  | 

Next, values leading:

Row | Inh. (%) (Inhibition) (MBHA with a DNA substrate) | Int.* (Ratio) (Interference) [1] | Int.* (Ratio) (Interference) [2] | Inh. (%) (Inhibition) (MBHA with DNA substrate) | Inh. (%) (Inhibition) (MBHA with DNA substrate, 20 µM) | SMILES
13 | −26.2 | 1.09 |  |  |  | O=[N+]([O-])c1cc(C(F)(F)F)cc([N+](=O)[O-])c1CCl [Compound 622627]
14 |  |  | 1.10 | −13.4 |  | NC(=O)c1c([N+](=O)[O-])cc(C(F)(F)F)cc1[N+](=O)[O-] [Compound 622640]
15 |  |  | 1.04 | −1.3 |  | CCOC(=O)/N=C(\N)SCc1ccccc1.Cl [Compound 622684]
16 |  |  | 0.92 | 27.4 |  | Cn1ncc2cc3c(Nc4ccc(Cl)cc4)cccc3nc21 [Compound 622732]
17 |  |  | 0.92 | −10.9 |  | Cc1cc(Cl)ccc1N1C(=O)C(=O)C(c2nc3ccccc3o2)C(=O)C1=O [Compound 623051]
18 |  |  | 0.94 | −8.7 |  | COc1ccc2nc(NC(=O)C(=O)CC(=O)c3ccc(Cl)cc3)sc2c1 [Compound 623059]
19 | −4.2 | 0.87 |  |  |  | O=C(Nc1ccccc1-c1nn(C(=S)Nc2ccccc2)c(=S)n(C(=S)Nc2ccccc2)c1=O)C(F)(F)F [Compound 623093]
20 |  |  | 0.81 | −15.3 |  | CN(C)c1ccc(/C=c2/sc3nc(=O)c(-c4ccccc4NC(=O)C(F)(F)F)nn3c2=O)cc1 [Compound 623095]
21 |  |  | 0.87 | 36.6 |  | CC(=O)OCc1c2ccccc2c(C)c2c1cc(F)c1ccccc12 [Compound 623135]
22 | −21.1 | 0.98 |  |  |  | CCCCCCCCCCCCCCCCCCOCC(COCCOCC[N+]1(CCCCCC(=O)[O-])CCCC1)Oc1ncccn1 (centres unmarked) [Compound 623527]
23 | −3.5 | 0.97 |  |  |  | COC(=O)c1ccccc1OCc1cc(=O)oc2ccc(C)cc12 [Compound 623637]
24 | −29.6 | 0.99 |  |  |  | CCOC(=O)C1=C(O)CSC1=Nc1ccc(N=C2SCC(O)=C2C(=O)OCC)cc1 [Compound 623746]
25 | 9.2 | 0.90 |  |  |  | Cc1ccc(S(=O)(=O)SC/C=C/CSS(=O)(=O)c2ccc(C)cc2)cc1 [Compound 624158]
26 |  |  | 1.03 | −8.2 |  | O=S(=O)(O)SC/C=C/CSS(=O)(=O)O [Compound 624161]
27 | 7.7 | 0.96 |  |  |  | Cl.NCCSSCc1ccccc1CSSCCN [Compound 624169]
28 |  |  | 0.81 | 0.1 |  | CCCCCCCCCCNCCSSCc1ccc(Cl)cc1.Cl [Compound 624206]

Reference: patent US9464064B2, “HCV helicase inhibitors and methods of use thereof” (University of Kansas, priority 2011, dated 2016)
